Data as given in the supplement of paper PMC11208160.

Assay: recombinant barcode read abundance after kanamycin selection (control-corrected) (log10(CPM+1)); higher = more efficient recombination; sequences stand for … in AGTGCAGAGAAAATCGGCCAGTTTTCTCTGCCTGCAGTCCGCATGCCGT…AGATTTATGCAGCGGACTGCCTTTCTCCCAAAGTGATAAACCGGACAGTATCATGGACCGGTTTTCCCGGTAATCCGTATTTGCAAGGTTGGTTTCACT; site = the 11-nt target
Summary of the method: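 Targets and IS621 bridge RNA target-binding loops were paired in oligos, each with a promoter, a barcode and the J23119-driven first 104 bridge RNA bases. A vector carrying the remaining 73 bp and a T7-inducible recombinase received these by Gibson cloning, and the pool was co-electroporated into E. coli with a donor plasmid. Duplicate plates contained chloramphenicol/ampicillin LB agar (control) or chloramphenicol/ampicillin/kanamycin with 0.1 mM IPTG. Recombination efficiency comes from averaged, control-corrected counts per million of recombinant-junction barcodes, reported as log10(CPM+1).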
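Note: IS621 recombinase and bridge RNA in Escherichia coli cells.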

Going from “AGGGAGACTTGGGTTCTAACCTGTTGCCA (site AGGGAGACTTG)” to “AGGGAGACTTGGGTTCTAACCTGTTGCCA (site AGGTAGACTTG)”, the “recombinant barcode read abundance (log10)” value falls from 2.49 to 0.0182.

Compared with “AGGGAGACTTGGGTTCTAACCTGTTGCTT (site AGGGAGACTAA)”, “AGGGAGACTTGGGTTCTAACCTGTTGCTT (site AGGGATACTAA)” is lower in “recombinant barcode read abundance (log10)” value: 2.39 for the first, 0.25 for the second.

First: AGGGCCTCTTGGGTTCTAACCTGTTGCAG (site AGGGCCTCTCT)
Second: AGGGCCTCTTGGGTTCTAACCTGTTGCAG (site GGGGCCTCTTT)
The “recombinant barcode read abundance (log10)” value of the first is higher: 2.73 for the first, 0.118 for the second.

Compared with “AGGGCGCCTTGGGTTCTAACCTGTTGCTT (site AGGGCGCCTAA)”, “AGGGCGCCTTGGGTTCTAACCTGTTGCTT (site CATTTAGCTCC)” is lower in “recombinant barcode read abundance (log10)” value: 1.18 for the first, 0.822 for the second.

First: AGGGGAGCTTGGGTTCTAACCTGTTGCCT (site AGGGAAGCTAG)
Second: AGGGGAGCTTGGGTTCTAACCTGTTGCCT (site AGGGCAGCTAG)
The “recombinant barcode read abundance (log10)” value of the first is higher: 1.12 for the first, 0.109 for the second.

First: AGGGGAGCTTGGGTTCTAACCTGTTGCCT (site AGGGGAGCTAG)
Second: AGGGGAGCTTGGGTTCTAACCTGTTGCCT (site AGGGTAGCTAG)
The “recombinant barcode read abundance (log10)” value of the first is higher: 1.61 for the first, 0.315 for the second.

First: AGGTAGACTTGGGTTCTAACCTGTTGCTA (site AGGTAGACTTA)
Second: AGGTAGACTTGGGTTCTAACCTGTTGCTA (site GGGTACACTTA)
The “recombinant barcode read abundance (log10)” value of the first is higher: 2.44 for the first, 0.303 for the second.

Compared with “AGGTCACCTTGGGTTCTAACCTGTTGCAT (site AGGTCACCTAA)”, “AGGTCACCTTGGGTTCTAACCTGTTGCAT (site AGGTCACCTAC)” is higher in “recombinant barcode read abundance (log10)” value: 0.129 for the first, 0.62 for the second.

Compared with “AGGTCACCTTGGGTTCTAACCTGTTGCAT (site AGGTCACCTAG)”, “AGGTCACCTTGGGTTCTAACCTGTTGCAT (site AGGTCACCTAT)” is higher in “recombinant barcode read abundance (log10)” value: 0.128 for the first, 2.12 for the second.

Compared with “AGGTCCTCTTGGGTTCTAACCTGTTGCTT (site AGGTCCTCTAA)”, “AGGTCCTCTTGGGTTCTAACCTGTTGCTT (site AGGTCCTCTAC)” is lower in “recombinant barcode read abundance (log10)” value: 1.13 for the first, 0.715 for the second.

First: AGGTCCTCTTGGGTTCTAACCTGTTGCTT (site AGGTCCTCTAG)
Second: AGGTCCTCTTGGGTTCTAACCTGTTGCTT (site AGGTCCTCTAT)
The “recombinant barcode read abundance (log10)” value of the first is lower: 0.954 for the first, 1.2 for the second.

Going from “AGGTCGGCTTGGGTTCTAACCTGTTGCCT (site AGATCGGCTAG)” to “AGGTCGGCTTGGGTTCTAACCTGTTGCCT (site AGGTCGGCTAG)”, the “recombinant barcode read abundance (log10)” value rises from 0.329 to 1.24.

“AGGTCGTCTTGGGTTCTAACCTGTTGCCT (site AAGTCGTCTAG)” and “AGGTCGTCTTGGGTTCTAACCTGTTGCCT (site ACGTCGTCTAG)” are within 0.2 log units of each other in “recombinant barcode read abundance (log10)” value: 0 for the first, 0.146 for the second.

First: AGGTCGTCTTGGGTTCTAACCTGTTGCCT (site AGGTCGTCTAG)
Second: AGGTCGTCTTGGGTTCTAACCTGTTGCCT (site ATGTCGTCTAG)
The “recombinant barcode read abundance (log10)” value of the first is higher: 1.74 for the first, 0.0512 for the second.

Compared with “AGGTGCCCTTGGGTTCTAACCTGTTGCCG (site AAGTGCTCTCG)”, “AGGTGCCCTTGGGTTCTAACCTGTTGCCG (site AGGTGCCCTCG)” is higher in “recombinant barcode read abundance (log10)” value: 0.235 for the first, 1.15 for the second.

First: AGGTGTTCTTGGGTTCTAACCTGTTGCCT (site AGGTGTTCTAG)
Second: AGGTGTTCTTGGGTTCTAACCTGTTGCCT (site ATGCGTTCTAG)
The “recombinant barcode read abundance (log10)” value of the first is higher: 0.716 for the first, 0.018 for the second.

“AGTAAGACTTGGGTTCTAACCTGTTGCCT (site AGTAAGACTAA)” and “AGTAAGACTTGGGTTCTAACCTGTTGCCT (site AGTAAGACTAC)” are within 0.2 log units of each other in “recombinant barcode read abundance (log10)” value: 0.132 for the first, 0.16 for the second.

Compared with “AGTAAGACTTGGGTTCTAACCTGTTGCCT (site AGTAAGACTAG)”, “AGTAAGACTTGGGTTCTAACCTGTTGCCT (site AGTAAGACTAT)” is lower in “recombinant barcode read abundance (log10)” value: 1.69 for the first, 0.2 for the second.

Going from “AGTAAGACTTGGGTTCTAACCTGTTGCTA (site ACTAAGACTCA)” to “AGTAAGACTTGGGTTCTAACCTGTTGCTA (site AGTAAGACTTA)”, the “recombinant barcode read abundance (log10)” value rises from 0.154 to 1.23.

“AGTAAGTCTTGGGTTCTAACCTGTTGCCT (site AATAAGTCTAG)” and “AGTAAGTCTTGGGTTCTAACCTGTTGCCT (site ACTAAGTCTAG)” are within 0.2 log units of each other in “recombinant barcode read abundance (log10)” value: 0.0805 for the first, 0.186 for the second.

Compared with “AGTAAGTCTTGGGTTCTAACCTGTTGCCT (site AGTAAGTCTAG)”, “AGTAAGTCTTGGGTTCTAACCTGTTGCCT (site ATTAAGTCTAG)” is lower in “recombinant barcode read abundance (log10)” value: 0.61 for the first, 0.0108 for the second.

“AGTAATTCTTGGGTTCTAACCTGTTGCCT (site AGAAATTCTAG)” and “AGTAATTCTTGGGTTCTAACCTGTTGCCT (site AGCAATTCTAG)” are within 0.2 log units of each other in “recombinant barcode read abundance (log10)” value: 0.0418 for the first, 0.0536 for the second.

First: AGTAATTCTTGGGTTCTAACCTGTTGCCT (site AGGAATTCTAG)
Second: AGTAATTCTTGGGTTCTAACCTGTTGCCT (site AGTAATTCTAG)
The “recombinant barcode read abundance (log10)” value of the first is lower: 0.0166 for the first, 0.454 for the second.

“AGTACCTCTTGGGTTCTAACCTGTTGCCT (site AATACCTCTAG)” and “AGTACCTCTTGGGTTCTAACCTGTTGCCT (site ACTACCTCTAG)” are within 0.2 log units of each other in “recombinant barcode read abundance (log10)” value: 0.192 for the first, 0.283 for the second.

First: AGTACCTCTTGGGTTCTAACCTGTTGCCT (site AGTACCTCTAG)
Second: AGTACCTCTTGGGTTCTAACCTGTTGCCT (site ATTACCTCTAG)
The “recombinant barcode read abundance (log10)” value of the first is higher: 0.941 for the first, 0.0826 for the second.

First: AGTAGACCTTGGGTTCTAACCTGTTGCTT (site AGTAGACCTAA)
Second: AGTAGACCTTGGGTTCTAACCTGTTGCTT (site AGTATACCTCA)
The “recombinant barcode read abundance (log10)” value of the first is higher: 0.828 for the first, 0.0353 for the second.

Going from “AGTATACCTTGGGTTCTAACCTGTTGCTG (site AGTAGACCTAA)” to “AGTATACCTTGGGTTCTAACCTGTTGCTG (site AGTATACCTCA)”, the “recombinant barcode read abundance (log10)” value rises from 0.178 to 1.31.

Going from “AGTCAGACTTGGGTTCTAACCTGTTGCAC (site AGTCAGACTGT)” to “AGTCAGACTTGGGTTCTAACCTGTTGCAC (site CTAAGCGCTAG)”, the “recombinant barcode read abundance (log10)” value falls from 1.19 to 0.396.

Going from “AGTCAGCCTTGGGTTCTAACCTGTTGCCT (site AGTAAGCCTAG)” to “AGTCAGCCTTGGGTTCTAACCTGTTGCCT (site AGTCAGCCTAG)”, the “recombinant barcode read abundance (log10)” value rises from 0.0129 to 0.749.

“AGTCAGCCTTGGGTTCTAACCTGTTGCCT (site AGTGAGCCTAG)” and “AGTCAGCCTTGGGTTCTAACCTGTTGCCT (site AGTTAGCCTAG)” are within 0.2 log units of each other in “recombinant barcode read abundance (log10)” value: 0.318 for the first, 0.133 for the second.

“AGTCAGTCTTGGGTTCTAACCTGTTGCCA (site AGTCAGTCTTG)” and “AGTCAGTCTTGGGTTCTAACCTGTTGCCA (site AGTTAGTCTTG)” are within 0.2 log units of each other in “recombinant barcode read abundance (log10)” value: 0.0748 for the first, 0.121 for the second.

Compared with “AGTCATACTTGGGTTCTAACCTGTTGCAT (site AGTCATACTAT)”, “AGTCATACTTGGGTTCTAACCTGTTGCAT (site AGTCATCCTAG)” is lower in “recombinant barcode read abundance (log10)” value: 0.356 for the first, 0.0486 for the second.

Compared with “AGTCATACTTGGGTTCTAACCTGTTGCCA (site AGTCATACTTG)”, “AGTCATACTTGGGTTCTAACCTGTTGCCA (site GACGTGTCTAC)” is lower in “recombinant barcode read abundance (log10)” value: 0.355 for the first, 0.0524 for the second.

Going from “AGTCCTTCTTGGGTTCTAACCTGTTGCAT (site AGTCCTTCTAT)” to “AGTCCTTCTTGGGTTCTAACCTGTTGCAT (site CGTCCTTCTAG)”, the “recombinant barcode read abundance (log10)” value falls from 0.878 to 0.0721.

Compared with “AGTCTACCTTGGGTTCTAACCTGTTGCCT (site AGTCTACCTAG)”, “AGTCTACCTTGGGTTCTAACCTGTTGCCT (site CGTCTACCTAG)” is lower in “recombinant barcode read abundance (log10)” value: 1.23 for the first, 0.0985 for the second.

Going from “AGTCTAGCTTGGGTTCTAACCTGTTGCCG (site AGTCTAGCTAG)” to “AGTCTAGCTTGGGTTCTAACCTGTTGCCG (site AGTCTAGCTCG)”, the “recombinant barcode read abundance (log10)” value rises from 0.083 to 0.67.

First: AGTCTAGCTTGGGTTCTAACCTGTTGCCG (site AGTCTAGCTGG)
Second: AGTCTAGCTTGGGTTCTAACCTGTTGCCG (site AGTCTAGCTTG)
The “recombinant barcode read abundance (log10)” value of the first is lower: 0.0274 for the first, 0.641 for the second.

Compared with “AGTCTCCCTTGGGTTCTAACCTGTTGCCT (site AGACTCCCTAG)”, “AGTCTCCCTTGGGTTCTAACCTGTTGCCT (site AGCCTCCCTAG)” is lower in “recombinant barcode read abundance (log10)” value: 0.372 for the first, 0.0404 for the second.

Going from “AGTCTCCCTTGGGTTCTAACCTGTTGCCT (site AGGCTCCCTAG)” to “AGTCTCCCTTGGGTTCTAACCTGTTGCCT (site AGTCTCCCTAG)”, the “recombinant barcode read abundance (log10)” value rises from 0.0232 to 1.56.

Compared with “AGTCTCTCTTGGGTTCTAACCTGTTGCCG (site AGTCTCTCTCG)”, “AGTCTCTCTTGGGTTCTAACCTGTTGCCG (site AGTCTCTCTTA)” is lower in “recombinant barcode read abundance (log10)” value: 0.357 for the first, 0.0569 for the second.

Going from “AGTGCGGCTTGGGTTCTAACCTGTTGCCT (site AGTGCGGCTAG)” to “AGTGCGGCTTGGGTTCTAACCTGTTGCCT (site CGTGCGGCTAG)”, the “recombinant barcode read abundance (log10)” value falls from 0.685 to 0.231.

“AGTGCGGCTTGGGTTCTAACCTGTTGCCT (site GGTGCGGCTAG)” and “AGTGCGGCTTGGGTTCTAACCTGTTGCCT (site TGTGCGGCTAG)” are within 0.2 log units of each other in “recombinant barcode read abundance (log10)” value: 0.0363 for the first, 0.143 for the second.

First: AGTTAACCTTGGGTTCTAACCTGTTGCGG (site ACTTGACCTCC)
Second: AGTTAACCTTGGGTTCTAACCTGTTGCGG (site AGTTAACCTCC)
The “recombinant barcode read abundance (log10)” value of the first is lower: 0.0373 for the first, 1.97 for the second.
